Laboratory results: patent publication US12037324B2, “Biarylmethyl heterocycles” (Université de Montréal, priority 2016, dated 2024)

Assays:
AGTR1 [1] = target: T1, AGTR1 (Homo sapiens, UniProt P30556); assay: DiscoveRx β-arrestin2 recruitment assay (enzyme complementation, Pathunter CHO-K1 AGTR1 β-arrestin cell line); type: cell-based; conditions: DiscoveRx β-arrestin2 recruitment; for DiscoveRx β-arrestin2 Ymax (%): maximal response
T1 construct: host or cells: Pathunter CHO-K1 AGTR1 β-arrestin cell line (CHO-K1)
T1 sequence (P30556 1-359): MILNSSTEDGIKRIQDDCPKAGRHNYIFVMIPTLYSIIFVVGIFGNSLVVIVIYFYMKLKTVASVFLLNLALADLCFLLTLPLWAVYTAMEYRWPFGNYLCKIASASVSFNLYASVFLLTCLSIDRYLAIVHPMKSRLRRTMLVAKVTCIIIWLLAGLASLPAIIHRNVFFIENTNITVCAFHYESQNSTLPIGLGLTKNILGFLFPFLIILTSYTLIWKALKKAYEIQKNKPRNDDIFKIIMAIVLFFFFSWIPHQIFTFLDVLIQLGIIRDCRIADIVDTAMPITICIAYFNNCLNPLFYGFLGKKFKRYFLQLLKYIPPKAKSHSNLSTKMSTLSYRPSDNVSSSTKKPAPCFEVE
Outline: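 Chemiluminescent enzyme-complementation read-out of β-arrestin2 recruitment to AGTR1 in engineered CHO-K1 cells after 90 min compound exposure at 37° C. Values are 4-parameter logistic EC50s in agonist mode, IC50s in antagonist mode, with efficacy relative to the maximal All response.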

AGTR1 [2] = target: T1, AGTR1; assay: DiscoveRx IP1 accumulation assay (HTRF), agonist mode, Pathunter CHO-K1 AGTR1 β-arrestin cell line; type: cell-based; conditions: for EC50: read-out: IP-1 EC50
Outline: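 Agonist mode in CHO-K1 AGTR1 β-arrestin cells plated 14-16 h before; compounds at varying concentrations for 90 min at 37° C, IP1 accumulation read by HTRF (D2-conjugate and anti-IP1 cryptate, 20 min room temperature). EC50 from 4-parameter logistic fit; activity given as percentage of maximal AII effect.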

hAT1R [3] = target: T2, hAT1R (Homo sapiens, UniProt P30556); assay: BRET β-arrestin2 biosensor assay, higher receptor expression (hAT1R 5 ng/well), HEK293 cells; type: cell-based; conditions: for EC50: High AT1R Expression
T2 sequence (P30556 1-359): T1 sequence (P30556 1-359)

hAT1R [4] = target: T2, hAT1R; assay: cell-based
hAT1R [5] = target: T2, hAT1R; assay: cell-based; conditions: agonist mode; for EC50: read-out: BRET P63 EC50
[6] = section of the 42nd table ending at r951, example numbering restarts after the DiscoveRx section, read-out: β-arrestin2 EC50
[7] = Low AT1R Expression, read-out: BRET β-Arrestin2 Low AT1R Expression EC50

Structure (SMILES) | EC50 (AGTR1 [1]) [nM] | DiscoveRx β-arrestin2 Ymax (%) (AGTR1 [1]) | IP-1 Ymax (%) (AGTR1 [2]) | EC50 (AGTR1 [2]) [nM] | BRET β-Arrestin2 High AT1R Expression Ymax (%) (hAT1R [3]) | EC50 (hAT1R [3]) [nM] | EC50 (hAT1R [4]; [6]) [nM] | BRET P63 Ymax (hAT1R [5]) [%] | EC50 (hAT1R [5]) [nM] | BRET β-Arrestin2 Low AT1R Expression Ymax (%) (hAT1R [4]; Low AT1R Expression) | EC50 (hAT1R [4]; [7]) [nM]
CCc1nc2c(C)cc(C)nc2n1Cc1ccc(-c2cc(OC3CCCCC3)ccc2-c2nnn[nH]2)cc1 [Example 209, 3-((5′-(Cyclohexyloxy)-2′-(1H-tetrazol-5-yl)-[1,1′-biphenyl]-4-yl)methyl)-2-ethyl-5,7-dimethyl-3H-imidazo[4,5-b]pyridine] | 45.9 | 49.6 | 25.5 | 110 | 90.6 | 7.2 | 50 | 32.6 | 37.6 | – | –
CCc1nc2c(C)cc(C)nc2n1Cc1ccc(-c2cc(-c3ccccc3O)ccc2-c2nn[nH]n2)cc1 [Example 10] | 1.4 | 60.3 | 14.4 | 5 | 86.9 | 1.4 | – | 26.1 | 2.8 | 86.8 | 2.4
CCc1nc2c(C)cc(C)nc2n1Cc1ccc(-c2cc(C3CCCCO3)ccc2-c2nn[nH]n2)cc1 (single isomer, unassigned) [Example 78, 2-ethyl-5,7-dimethyl-3-((5′-(tetrahydro-2H-pyran-2-yl)-2′-(2H-tetrazol-5-yl)-[1,1′-biphenyl]-4-yl)methyl)-3H-imidazo[4,5-b]pyridine] | 19.9 | 50.0 | 37.8 | 79.5 | 94.3 | 15 | – | 36.1 | 72.3 | 85.0 | 37.5
CCCCC1=NC2(CCCC2)C(=O)N1Cc1ccc(-c2cc(-c3cc(C)ccn3)ccc2-c2nn[nH]n2)cc1 [Example 139] | 10.5 | 50.1 | 16.8 | 19.2 | 95.0 | 11.2 | – | 20.6 | 34.4 | 83.5 | 41.4
CCc1nc2c(C)cc(C)nc2n1Cc1ccc(-c2cc(-n3cc(C4CC4)nn3)ccc2-c2nnn[nH]2)cc1 [Example 225, 3-((5′-(4-Cyclopropyl-1H-1,2,3-triazol-1-yl)-2′-(5H-tetrazol-5-yl)-[1,1′-biphenyl]-4-yl)methyl)-2-ethyl-5,7-dimethyl-3H-imidazo[4,5-b]pyridine] | 29 | 35.4 | 7.0 | 25.2 | 82.1 | 10.9 | 187 | 7.1 | 29.5 | – | –
CCc1nc2c(C)cc(C)nc2n1Cc1ccc(-c2cc(-n3cccn3)ccc2-c2nn[nH]n2)cc1 [Example 25] | 15.9 | 23.1 | 6.7 | 40.8 | 74.5 | 19.8 | – | – | > 100000 | 10.1 | 32.9
CCc1nc2c(C)cc(C)nc2n1Cc1ccc(-c2cc(-c3cc(C)ccn3)ccc2-c2nn[nH]n2)cc1 [Example 64] | 6.9 | 67.8 | 30.8 | 23.2 | 92.5 | 1.9 | – | 41.3 | 2.6 | 98.7 | 3.1
CCc1nc2c(C)cc(C)nc2n1Cc1ccc(-c2cc(-c3cn(CCO)nn3)ccc2-c2nnn[nH]2)cc1 [Example 235] | 56.6 | 56.0 | 14.9 | 213 | 89.5 | 29.6 | 129 | 17.7 | 161 | – | –
CCc1nc2c(C)cc(C)nc2n1Cc1ccc(-c2cc(Oc3ccc(F)cc3F)ccc2-c2nnn[nH]2)cc1 [Example 208] | 20.8 | 44.8 | 19.9 | 106 | 103.1 | 6 | 26.4 | 17.4 | 13.3 | – | –
CCCC1=NC2(CCCC2)C(=O)N1Cc1ccc(-c2cc(-c3ccccc3)ccc2-c2nn[nH]n2)cc1 [Example 114, 3-((6′-(2H-tetrazol-5-yl)-[1,1′:3′,1″-terphenyl]-4-yl)methyl)-2-propyl-1,3-diazaspiro[4.4]non-1-en-4-one] | 49.9 | 46.5 | 8.3 | 122 | 89.2 | 11.9 | – | 11.8 | 66.5 | 57.2 | 36.6
CCc1nc2c(C)cc(C)nc2n1Cc1ccc(-c2cc(Oc3ccccc3F)ccc2-c2nnn[nH]2)cc1 [Example 205, 2-Ethyl-3-((5′-(2-fluorophenoxy)-2′-(1H-tetrazol-5-yl)-[1,1′-biphenyl]-4-yl)methyl)-5,7-dimethyl-3H-imidazo[4,5-b]pyridine] | 31.8 | 42.2 | 16.7 | 70.2 | 92.1 | 4.8 | 21.3 | 20.2 | 18.4 | – | –
CCc1nc2c(C)cc(C)nc2n1Cc1ccc(-c2cc(-c3cncc(C)c3)ccc2-c2nn[nH]n2)cc1 [Example 60] | 53.7 | 33.5 | 5.3 | 83.1 | 85.8 | 19.6 | – | – | > 10000 | 39.4 | 93.3
CCc1nc2c(C)cc(C)nc2n1Cc1ccc(-c2cc(-c3ccccc3)ccc2-c2nnn[nH]2)nc1 [Example 176, 3-((6-(4-(1H-tetrazol-5-yl)-[1,1′-biphenyl]-3-yl)pyridin-3-yl)methyl)-2-ethyl-5,7-dimethyl-3H-imidazo[4,5-b]pyridine] | 31.8 | 32.0 | 9.8 | 48.9 | 79.1 | 25.5 | 30.6 | – | > 100000 | – | –
